Experiments:
[1] = tested on: RS411 cells; assay: Cell Viability CTG Assay; type: cell-based; settings: Homo sapiens, RS4-11, CellTiter Glo (CTG) cell viability, read-out: Average external-IC50
Experimental: Compounds or DMSO 60 nL were stamped to the cell plate as the platemap. RS411 cells were centrifuged at 800 rpm for 5 min, suspended with culture medium, and counted with Countess (Invitrogen). The cell density was adjusted to the recommend information. 30 μL of cell solution (1000 cells/well) was added to the assay plate as the platemap and 30 μL of media was added to column 2 and column 23 as the platemap. The plate was spun down briefly. The final concentration of the compounds started at 10 μM (3 fold dilution and 11 doses) and final DMSO concentration was 0.2%. The plate was spun down briefly and incubated at 37° C., 5% CO2 for 1 day. […] 30 μL CellTiter Glo reagent was added to each well and the plate was centrifuged at 1000 rpm for 30 sec. The plate was shaken for 1 min and centrifuged at 1000 rpm for 30 sec. The plate was incubated at RT for 10 min to stabilize the luminescent signal and the luminescence was read by EnVision.
The letter codes for IC50 indicate the concentration of compound required to affect 50% of cells: A (<0.005 μM), B (0.005-0.05 μM), C (0.05-0.5 μM), and D (>0.5 μM).

[2] = target: T1, HiBiT-tagged MDM2 (Homo sapiens, UniProt Q00987); assay: MDM2 HiBit HEK293T degradation; type: cell-based; settings: HEK293T cells stably expressing C-terminally HiBiT-tagged MDM2; 4 h; read-out: MDM2 HiBit HEK293T degradation 4 h: Average external-Abs DC50
T1 construct: expressed in transfected cells
T1 sequence (Q00987 whole entry): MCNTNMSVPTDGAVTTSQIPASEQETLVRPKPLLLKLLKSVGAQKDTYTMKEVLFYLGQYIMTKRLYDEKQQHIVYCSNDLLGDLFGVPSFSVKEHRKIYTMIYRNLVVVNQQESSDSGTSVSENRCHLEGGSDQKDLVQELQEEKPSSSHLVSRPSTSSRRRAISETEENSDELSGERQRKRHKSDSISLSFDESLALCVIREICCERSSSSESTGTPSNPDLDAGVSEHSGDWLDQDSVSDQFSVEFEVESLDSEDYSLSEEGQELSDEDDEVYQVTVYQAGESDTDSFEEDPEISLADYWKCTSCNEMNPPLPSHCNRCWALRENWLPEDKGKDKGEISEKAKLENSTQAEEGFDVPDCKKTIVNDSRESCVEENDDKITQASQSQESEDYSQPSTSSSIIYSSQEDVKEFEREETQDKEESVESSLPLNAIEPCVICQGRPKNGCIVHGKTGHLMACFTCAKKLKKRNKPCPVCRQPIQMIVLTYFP
Summary of the method: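 Degradation was measured in HEK293T cells stably expressing C-terminally HiBiT-tagged MDM2, a pool selected with 1 microgram/ml puromycin. A MDM2 tool degrader and HaloPROTAC3 served as positive controls. Potency is reported as DC50 in letter bins.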

SMILES | IC50 [1] [nM] | DC50 [2] [nM]
Cn1c(=O)n(C2CCC(=O)NC2=O)c2ccc(CN3CC(OC4CCN(C[C@H]5CC[C@H](NC(=O)[C@@H]6NC7(CCCCC7)[C@@]7(C(=O)Nc8cc(Cl)ccc87)[C@H]6c6cccc(Cl)c6F)CC5)CC4)C3)cc21 (stereo partly drawn) [I-47, (3′R,4′S,5′S)-6″-chloro-4′-(3-chloro-2-fluorophenyl)-N-((1r,4S)-4-((4-((1-((1-(2,6-dioxopiperidin-3-yl)-3-methyl-2-oxo-2,3-dihydro-1H-benzo[d]imidazol-5-yl)methyl)azetidin-3-yl)oxy)piperidin-1-yl)methyl)cyclohexyl)-2″-oxodispiro[cyclohexane-1,2′-pyrrolidine-3′,3″-indoline]-5′-carboxamide] | < 5 | < 10
COc1cc2c(cc1OC(C)C)[C@H](c1ccc(Cl)cc1)N(c1ccc(N(C)CC(=O)N3CCN(CCCCCCc4ccc5c(c4)n(C)c(=O)n5C4CCC(=O)NC4=O)CC3)cc1)C(=O)C2 (some centres unmarked) [I-48] | > 500 | > 1000
Cn1c(=O)n(C2CCC(=O)NC2=O)c2ccc(CN3CCC(OC4CN(C[C@H]5CC[C@H](NC(=O)[C@@H]6NC7(CCCCC7)[C@@]7(C(=O)Nc8cc(Cl)ccc87)[C@H]6c6cccc(Cl)c6F)CC5)C4)CC3)cc21 (some centres unmarked) [I-49] | 5 to 50 | < 10
CC1(C)CCC2(CC1)NC(C(=O)NC1CCC(CN3CCN(CC#Cc4ccn5c(N6CCC(=O)NC6=O)cnc5c4)CC3)CC1)[C@H](c1ccnc(Cl)c1F)[C@]21C(=O)Nc2cc(Cl)ccc21 (some centres unmarked) [I-50] | 5 to 50 | < 10
COc1cc2c(cc1OC(C)C)[C@H](c1ccc(Cl)cc1)N(c1ccc(N(C)CCC3CCN(CCCCC#Cc4ccn5c(N6CCC(=O)NC6=O)cnc5c4)CC3)cc1)C(=O)C2 [I-51] | 50 to 500 | 10 to 100
Cn1c(=O)n(C2CCC(=O)NC2=O)c2ccc(C3CCN(C[C@H]4CC[C@H](NC(=O)[C@@H]5NC6(CCCCC6)[C@@]6(C(=O)Nc7cc(Cl)ccc76)[C@H]5c5cccc(Cl)c5F)CC4)CC3(F)F)cc21 (some centres unmarked) [I-52] | < 5 | < 10
COc1cc2c(cc1OC(C)C)[C@H](c1ccc(Cl)cc1)N(c1ccc(N(C)CC3CCN(CCCc4ccc5c(c4)n(C)c(=O)n5C4CCC(=O)NC4=O)CC3)cc1)C(=O)C2 (some centres unmarked) [I-53] | < 5 | 10 to 100
Cn1c(=O)n(C2CCC(=O)NC2=O)c2ccc(CCCN3CCN(C[C@H]4CC[C@H](NC(=O)[C@@H]5NC6(CCCCC6)[C@@]6(C(=O)Nc7cc(Cl)ccc76)[C@H]5c5cccc(Cl)c5F)CC4)C(=O)C3)cc21 (some centres unmarked) [I-54] | 5 to 50 | < 10
Cc1ccc2c(c1)NC(=O)[C@]21[C@@H](c2cccc(C)c2F)[C@H](C(=O)N[C@H]2CC[C@H](C(=O)N3CCN(CCCc4ccc5c(c4)n(C)c(=O)n5C4CCC(=O)NC4=O)CC3)CC2)NC12CCCCC2 (some centres unmarked) [I-55] | > 500 | 10 to 100
Cn1c(=O)n(C2CCC(=O)NC2=O)c2ccc(CCCN3CCN(C[C@H]4CC[C@H](NC(=O)[C@@H]5NC6(CCC(C)(C)CC6)[C@@]6(C(=O)Nc7cc(Cl)ccc76)[C@H]5c5ccnc(Cl)c5F)CC4)C(=O)C3)cc21 (some centres unmarked) [I-56] | < 5 | < 10
Cc1ccc2c(c1)NC(=O)[C@]21[C@@H](c2cccc(Cl)c2F)[C@H](C(=O)N[C@H]2CC[C@H](C(=O)N3CCN(CCCc4ccc5c(c4)n(C)c(=O)n5C4CCC(=O)NC4=O)CC3)CC2)NC12CCCCC2 (some centres unmarked) [I-57] | < 5 | < 10
Cn1c(=O)n(C2CCC(=O)NC2=O)c2ccc(C(=O)N3CC(OC4CN(C[C@H]5CC[C@H](NC(=O)[C@@H]6NC7(CCCCC7)[C@@]7(C(=O)Nc8cc(Cl)ccc87)[C@H]6c6cccc(Cl)c6F)CC5)C4)C3)cc21 (some centres unmarked) [I-58] | 5 to 50 | < 10
Cn1c(=O)n(C2CCC(=O)NC2=O)c2ccc(CN3CC(OC4CN(C[C@H]5CC[C@H](NC(=O)[C@@H]6NC7(CCCCC7)[C@@]7(C(=O)Nc8cc(Cl)ccc87)[C@H]6c6cccc(Cl)c6F)CC5)C4)C3)cc21 (some centres unmarked) [I-59] | 5 to 50 | < 10
COc1cc2c(cc1OC(C)C)[C@H](c1ccc(Cl)cc1)N(c1ccc(N(C)C[C@H]3CC[C@H](N4CCN(Cc5ccc6c(c5)n(C)c(=O)n6C5CCC(=O)NC5=O)CC4)CC3)cc1)C(=O)C2 (some centres unmarked) [I-60] | < 5 | < 10
COc1cc2c(cc1OC(C)C)C(c1ccc(Cl)cc1)N(C1CCC(N(C)CC3CCN(CCCCCCc4ccc5c(c4)n(C)c(=O)n5C4CCC(=O)NC4=O)CC3)CC1)C(=O)C2 (centres unmarked) [I-61] | > 500 | > 1000
COc1cc2c(cc1OC(C)C)[C@H](c1ccc(Cl)cc1)N(c1ccc(N(C)CC3CCN(c4ccc5c(c4)n(C)c(=O)n5C4CCC(=O)NC4=O)CC3)cc1)C(=O)C2 (some centres unmarked) [I-62] | 5 to 50 | < 10
COc1cc2c(cc1OC(C)C)[C@H](c1ccc(Cl)cc1)N(c1ccc(N(C)C[C@H]3CC[C@H](N4CCN(CCc5cccc6c5n(C)c(=O)n6C5CCC(=O)NC5=O)CC4)CC3)cc1)C(=O)C2 (some centres unmarked) [I-63] | 5 to 50 | < 10
CC(C)[C@@H](CS(=O)(=O)C(C)C)N1C(=O)[C@@](C)(CC(=O)N[C@H]2CC[C@H](CN3CCN(CCCc4ccc5c(c4)n(C)c(=O)n5C4CCC(=O)NC4=O)CC3)CC2)C[C@H](c2cccc(Cl)c2)[C@H]1c1ccc(Cl)cc1 (some centres unmarked) [I-64] | 5 to 50 | 10 to 100
COc1cc2c(cc1OC(C)C)[C@H](c1ccc(Cl)cc1)N(c1ccc(N(C)C[C@H]3CC[C@H](N4C[C@@H]5C[C@H]4CN5CCc4ccc5c(c4)n(C)c(=O)n5C4CCC(=O)NC4=O)CC3)cc1)C(=O)C2 (some centres unmarked) [I-65] | 5 to 50 | 10 to 100
CC1(C)CCC2(CC1)N[C@@H](C(=O)N[C@H]1CC[C@H](CN3CCN(CCCc4cccn5c(N6CCC(=O)NC6=O)cnc45)CC3)CC1)[C@H](c1ccnc(Cl)c1F)[C@]21C(=O)Nc2cc(Cl)ccc21 [I-67] | 5 to 50 | < 10
Cn1c(=O)n(C2CCC(=O)NC2=O)c2ccc(CN3CCN(C[C@H]4CC[C@H](NC(=O)[C@@H]5NC6(CCCCC6)[C@@]6(C(=O)Nc7cc(Cl)ccc76)[C@H]5c5cccc(Cl)c5F)CC4)CC3)cc21 (some centres unmarked) [I-69] | 5 to 50 | < 10
Cn1c(=O)n(C2CCC(=O)NC2=O)c2ccc(N3CCN(CC4CCN(C[C@H]5CC[C@H](NC(=O)[C@@H]6NC7(CCCCC7)[C@@]7(C(=O)Nc8cc(Cl)ccc87)[C@H]6c6cccc(Cl)c6F)CC5)CC4)CC3)cc21 (some centres unmarked) [I-70] | < 5 | < 10
COc1cc2c(cc1OC(C)C)[C@H](c1ccc(Cl)cc1)N(c1ccc(N(C)C[C@H]3CC[C@H](N4CCN(c5ccc6c(c5)n(C)c(=O)n6C5CCC(=O)NC5=O)CC4)CC3)cc1)C(=O)C2 (stereo partly drawn) [I-71, 3-[5-[4-[4-[[4-[(1S)-1-(4-chlorophenyl)-7-isopropoxy-6-methoxy-3-oxo-1,4-dihydroisoquinolin-2-yl]-N-methyl-anilino]methyl]cyclohexyl]piperazin-1-yl]-3-methyl-2-oxo-benzimidazol-1-yl]piperidine-2,6-dione] | < 5 | < 10
Cn1c(=O)n(C2CCC(=O)NC2=O)c2ccc(CCCN3CCN(C[C@H]4CC[C@H](NC(=O)[C@@H]5NC6(CCC(C)(C)CC6)[C@@]6(C(=O)Nc7cc(Cl)ccc76)[C@H]5c5cccc(Cl)c5F)CC4)CC3)cc21 (some centres unmarked) [I-72] | < 5 | < 10
COc1cc2c(cc1OC(C)C)[C@H](c1ccc(Cl)cc1)N(c1ccc(N(C)C[C@H]3CC[C@H](N4CCC(c5ccc6c(c5)n(C)c(=O)n6C5CCC(=O)NC5=O)CC4)CC3)cc1)C(=O)C2 (some centres unmarked) [I-73] | < 5 | < 10
COc1cc2c(cc1OC(C)C)[C@H](c1ccc(Cl)cc1)N(c1ccc(N(C)C[C@H]3CC[C@H](c4ccc5c(c4)n(C)c(=O)n5C4CCC(=O)NC4=O)CC3)cc1)C(=O)C2 (some centres unmarked) [I-74] | 5 to 50 | < 10
CN1[C@@H](C(=O)N[C@H]2CC[C@H](CN3CC4(CCN(CCc5ccc6c(c5)n(C)c(=O)n6C5CCC(=O)NC5=O)CC4)C3)CC2)[C@H](c2cccc(Cl)c2F)[C@]2(C(=O)Nc3cc(Cl)ccc32)C12CCCCC2 (some centres unmarked) [I-75] | 5 to 50 | < 10
Cn1c(=O)n(C2CCC(=O)NC2=O)c2ccc(C3CCN(C[C@@H]4CC[C@@H](NC(=O)[C@@H]5NC6(CCC(C)(C)CC6)[C@@]6(C(=O)Nc7cc(Cl)ccc76)[C@H]5c5ccnc(Cl)c5F)CO4)CC3)cc21 (some centres unmarked) [I-76] | < 5 | < 10
